Target: human PAD4 (hPAD4) (Homo sapiens, UniProt Q9UM07)
Assay: RFMS Human PAD4 Functional Assay
Format: biochemical
Conditions: hPAD4 RFMS IC50, human PAD4, rapid-fire mass spectrum (RFMS) assay; 5 nM hPAD4, 250 μM BAEE
Procedure, shortened: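 RapidFire ESI-MS quantification, normalised to a modified-citrulline internal standard, after phenyl glyoxal (final 4 mM) derivatisation of the TCA-quenched reaction. The enzyme (10 nM) sat 30 min with compound (up to 50 μM final) before 500 μM BAEE (as added) started a 90 min, 37 °C reaction. Buffer: HEPES pH 7.5, 50 μM calcium, 5 μM TPEN.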

Chain of human PAD4 (hPAD4) (Q9UM07 whole entry): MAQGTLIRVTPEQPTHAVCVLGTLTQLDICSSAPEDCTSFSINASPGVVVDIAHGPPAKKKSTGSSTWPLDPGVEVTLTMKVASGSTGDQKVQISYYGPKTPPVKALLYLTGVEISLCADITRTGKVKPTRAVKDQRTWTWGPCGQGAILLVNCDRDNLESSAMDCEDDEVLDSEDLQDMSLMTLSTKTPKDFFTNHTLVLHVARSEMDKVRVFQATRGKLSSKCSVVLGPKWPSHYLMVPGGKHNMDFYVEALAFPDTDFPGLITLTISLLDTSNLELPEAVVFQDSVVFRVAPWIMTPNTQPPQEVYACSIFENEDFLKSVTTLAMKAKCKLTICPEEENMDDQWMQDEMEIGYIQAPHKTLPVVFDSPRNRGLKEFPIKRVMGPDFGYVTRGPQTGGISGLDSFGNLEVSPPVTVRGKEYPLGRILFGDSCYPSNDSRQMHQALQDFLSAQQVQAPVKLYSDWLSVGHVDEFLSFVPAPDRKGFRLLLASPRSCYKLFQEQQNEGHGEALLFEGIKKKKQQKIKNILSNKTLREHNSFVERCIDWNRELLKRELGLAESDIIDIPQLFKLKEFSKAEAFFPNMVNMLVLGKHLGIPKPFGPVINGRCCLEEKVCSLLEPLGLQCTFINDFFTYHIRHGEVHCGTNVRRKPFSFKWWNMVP

| Compound | IC50 [nM] |
| --- | --- |
| COc1cc(C(=O)N2C[C@H]3CC[C@@H]2[C@@H]3N)cc2nc(-c3cc4cccc(C5CCN(C(=O)C(OC)C6CC6)CC5)c4n3CC3CC3)n(C)c12 (stereo partly drawn) [Example 233, 1-(4-(2-(5-((1R,4R,7R)-7-amino-2-azabicyclo[2.2.1]heptane-2-carbonyl)-7-methoxy-1-methyl-1H-benzo[d]imidazol-2-yl)-1-(cyclopropylmethyl)-1H-indol-7-yl)piperidin-1-yl)-2-cyclopropyl-2-methoxyethan-1-one] | 63 |
| COc1cc(C(=O)N2C[C@H]3CC[C@@H]2[C@@H]3N)cc2nc(-c3cc4cccc(C5CCN(C(=O)Nc6cccc(F)c6)CC5)c4n3CC3CC3)n(C)c12 [Example 242, 4-(2-(5-((1R,4R,7R)-7-amino-2-azabicyclo[2.2.1]heptane-2-carbonyl)-7-methoxy-1-methyl-1H-benzo[d]imidazol-2-yl)-1-(cyclopropylmethyl)-1H-indol-7-yl)-N-(3-fluorophenyl)piperidine-1-carboxamide] | 30 |
| COc1cc(C(=O)N2C[C@H]3CC[C@@H]2[C@@H]3N)cc2nc(-c3cc4cccc(-c5ccc6[nH]c(=O)cc(C)c6c5)c4n3CC3CC3)n(C)c12 [Example 95, 6-(2-{5-[(1R,4R,7R)-7-amino-2-azabicyclo[2.2.1]heptane-2-carbonyl]-7-methoxy-1-methyl-1H-1,3-benzodiazol-2-yl}-1-(cyclopropylmethyl)-1H-indol-7-yl)-4-methyl-1,2-dihydroquinolin-2-one] | 107 |
| COCC(=O)N1CCC(c2cccc3cc(-c4nc5cc(C(=O)N6C[C@H](N)C[C@@H](F)C6)cc(OC)c5n4C)n(CC4CC4)c23)CC1 [Example 226, 1-(4-(2-(5-((3R,5R)-3-amino-5-fluoropiperidine-1-carbonyl)-7-methoxy-1-methyl-1H-benzo[d]imidazol-2-yl)-1-(cyclopropylmethyl)-1H-indol-7-yl)piperidin-1-yl)-2-methoxyethan-1-one] | 53 |
| COc1cc(C(=O)N2C[C@H]3CC[C@@H]2[C@@H]3N)cc2nc(-c3cc4cccc(CC5CCNCC5)c4n3CC3CC3)n(C)c12 [Example 10, (1R,4R,7R)-2-{2-[1-(cyclopropylmethyl)-7-[(piperidin-4-yl)methyl]-1H-indol-2-yl]-7-methoxy-1-methyl-1H-1,3-benzodiazole-5-carbonyl}-2-azabicyclo[2.2.1]heptan-7-amine] | 128 |
| COc1cc(C(=O)N2C[C@H](N)C[C@@H](F)C2)cc2nc(-c3cc4cccc(C5CC(C(N)=O)C5)c4n3CC3CC3)n(C)c12 (single isomer, unassigned) [Example 114] | 81 |
| COc1cc(C(=O)N2C[C@H]3CC[C@@H]2[C@@H]3N)cc2nc(-c3cc4cccc(-c5ccc6c(c5)C(=O)NC6)c4n3CC3CC3)n(C)c12 [Example 98, 6-(2-{5-[(1R,4R,7R)-7-amino-2-azabicyclo[2.2.1]heptane-2-carbonyl]-7-methoxy-1-methyl-1H-1,3-benzodiazol-2-yl}-1-(cyclopropylmethyl)-1H-indol-7-yl)-2,3-dihydro-1H-isoindol-1-one] | 35 |
| COc1cc(C(=O)N2C[C@H]3CC[C@@H]2[C@@H]3N)cc2nc(-c3cc4cccc(Nc5cn(C)nc5C)c4n3CC3CC3(Cl)Cl)n(C)c12 (stereo partly drawn) [Example 179, ((1R,4R,7R)-7-amino-2-azabicyclo[2.2.1]heptan-2-yl)(2-(1-((2,2-dichlorocyclopropyl)meth-yl)-7-((1,3-dimethyl-1H-pyrazol-4-yl)amino)-1H-indol-2-yl)-7-methoxy-1-methyl-1H-benzo[d]imidazol-5-yl)methanone] | 24 |
| COc1cc(C(=O)N2C[C@H]3CC[C@@H]2[C@@H]3N)cc2nc(-c3cc4cccc(C5CN(C(=O)Cc6ccccn6)C5)c4n3CC3CC3)n(C)c12 [Example 75, 1-[3-(2-{5-[(1R,4R,7R)-7-amino-2-azabicyclo[2.2.1]heptane-2-carbonyl]-7-methoxy-1-methyl-1H-1,3-benzodiazol-2-yl}-1-(cyclopropylmethyl)-1H-indol-7-yl)azetidin-1-yl]-1-(pyridin-2-yl)ethan-1-one] | 34 |
| COc1cc(C(=O)N2C[C@H]3CC[C@@H]2[C@@H]3N)cc2nc(-c3cc4cccc(CCN5CCOC5=O)c4n3CC3CC3)n(C)c12 [Example 23, 3-[2-(2-{5-[(1R,4R,7R)-7-amino-2-azabicyclo[2.2.1]heptane-2-carbonyl]-7-methoxy-1-methyl-1H-1,3-benzodiazol-2-yl}-1-(cyclopropylmethyl)-1H-indol-7-yl)ethyl]-1,3-oxazolidin-2-one] | 120 |
| CCOC(=O)c1ccc(Nc2cccc3cc(-c4nc5cc(C(=O)N6CC7CCC6[C@@H]7N)cc(OC)c5n4C)n(CC4CC4)c23)cc1 (stereo partly drawn) [Example 162, ethyl 4-((2-(5-((7R)-7-amino-2-azabicyclo[2.2.1]heptane-2-carbonyl)-7-methoxy-1-methyl-1H-benzo[d]imidazol-2-yl)-1-(cyclopropylmethyl)-1H-indol-7-yl)amino)benzoate] | 98 |
| COc1cc(C(=O)N2C[C@H]3CC[C@@H]2[C@@H]3N)cc2nc(-c3cc4cccc(C5CN(C(=O)Nc6ccccc6)C5)c4n3CC3CC3)n(C)c12 [Example 70, 3-(2-{5-[(1R,4R,7R)-7-amino-2-azabicyclo[2.2.1]heptane-2-carbonyl]-7-methoxy-1-methyl-1H-1,3-benzodiazol-2-yl}-1-(cyclopropylmethyl)-1H-indol-7-yl)-N-phenylazetidine-1-carboxamide] | 15 |
| COc1cc(C(=O)N2C[C@H]3CC[C@@H]2[C@@H]3N)cc2nc(-c3cc4cccc(C5CCCN(C(C)=O)C5)c4n3CC3CC3)n(C)c12 (stereo partly drawn) [Example 38, 1-[3-(2-{5-[(1R,4R,7R)-7-amino-2-azabicyclo[2.2.1]heptane-2-carbonyl]-7-methoxy-1-methyl-1H-1,3-benzodiazol-2-yl}-1-(cyclopropylmethyl)-1H-indol-7-yl)piperidin-1-yl]ethan-1-one] | 73 |
| COc1cc(C(=O)N2C[C@H]3CC[C@@H]2[C@@H]3N)cc2nc(-c3cc4cccc(-c5cccc(C(O)CO)c5)c4n3CC3CC3)n(C)c12 (stereo partly drawn) [Example 222, ((1R,4R,7R)-7-amino-2-azabicyclo[2.2.1]heptan-2-yl)(2-(1-(cyclopropylmethyl)-7-(3-(1,2-dihydroxyethyl)phenyl)-1H-indol-2-yl)-7-methoxy-1-methyl-1H-benzo[d]imidazol-5-yl)methanone] | 94 |
| COc1cc(C(=O)N2C[C@H]3CC[C@@H]2[C@@H]3N)cc2nc(-c3cc4cccc(CCO)c4n3CC3CC3)n(C)c12 [Example 35, 2-(2-{5-[(1R,4R,7R)-7-amino-2-azabicyclo[2.2.1]heptane-2-carbonyl]-7-methoxy-1-methyl-1H-1,3-benzodiazol-2-yl}-1-(cyclopropylmethyl)-1H-indol-7-yl)ethan-1-ol] | 102 |
| COc1cc(C(=O)N2C[C@H]3CC[C@@H]2[C@@H]3N)cc2nc(-c3cc4cccc(-c5cnc(C#N)nc5)c4n3CC3CC3(F)F)n(C)c12 (stereo partly drawn) [Example 149, 5-(2-(5-((1R,4R,7R)-7-amino-2-azabicyclo[2.2.1]heptane-2-carbonyl)-7-methoxy-1-methyl-1H-benzo[d]imidazol-2-yl)-1-((2,2-difluorocyclopropyl)meth-yl)-1H-indol-7-yl)pyrimidine-2-carbonitrile] | 168 |
| COc1cc(C(=O)N2C[C@H]3CC[C@@H]2[C@@H]3N)cc2nc(-c3cc4cccc(C5CN(C(=O)Cc6ccccc6)C5)c4n3CC3CC3)n(C)c12 [Example 72, 1-[3-(2-{5-[(1R,4R,7R)-7-amino-2-azabicyclo[2.2.1]heptane-2-carbonyl]-7-methoxy-1-methyl-1H-1,3-benzodiazol-2-yl}-1-(cyclopropylmethyl)-1H-indol-7-yl)azetidin-1-yl]-2-phenylethan-1-one] | 10 |
| COc1cc(C(=O)N2C[C@H]3CC[C@@H]2[C@@H]3N)cc2nc(-c3cc4cccc(CCc5c(C)n[nH]c5C)c4n3CC3CC3)n(C)c12 [Example 33, (1R,4R,7R)-2-{2-[1-(cyclopropylmethyl)-7-[2-(3,5-dimethyl-1H-pyrazol-4-yl)ethyl]-1H-indol-2-yl]-7-methoxy-1-methyl-1H-1,3-benzodiazole-5-carbonyl}-2-azabicyclo[2.2.1]heptan-7-amine] | 129 |
| COc1cc(C(=O)N2CC3CCC2C3N)cc2nc(-c3cc4cccc(NCC5CNC5)c4n3CC3CC3)n(C)c12 (stereo not shown) [Example 159, (7-amino-2-azabicyclo[2.2.1]heptan-2-yl)(2-(7-((azetidin-3-ylmethyl)amino)-1-(cyclopropylmethyl)-1H-indol-2-yl)-7-methoxy-1-methyl-1H-benzo[d]imidazol-5-yl)methanone] | 150 |
| COc1cc(C(=O)N2C[C@H]3CC[C@@H]2[C@@H]3N)cc2nc(-c3cc4cccc(C5CC(C(=O)N6CC[C@@H](O)C6)C5)c4n3CC3CC3)n(C)c12 (single isomer, unassigned) [Example 51] | 48 |
| COc1cc(C(=O)N2C[C@H]3CC[C@@H]2[C@@H]3N)cc2nc(-c3cc4cccc(-c5ccc(NC(C)=O)nc5)c4n3CC3CC3)n(C)c12 [Example 106, N-[5-(2-{5-[(1R,4R,7R)-7-amino-2-azabicyclo[2.2.1]heptane-2-carbonyl]-7-methoxy-1-methyl-1H-1,3-benzodiazol-2-yl}-1-(cyclopropylmethyl)-1H-indol-7-yl)pyridin-2-yl]acetamide] | 61 |

Same assay, conditions: human PAD4, rapid-fire mass spectrum (RFMS) assay; 5 nM hPAD4, 250 μM BAEE; read-out: hPAD4 RFMS IC50

| Compound | IC50 [nM] |
| --- | --- |
| COc1cc(C(=O)N2C[C@H](N)C[C@@H](F)C2)cc2nc(-c3cc4cccc(C5CN(C(C)=O)C5)c4n3CC3CC3)n(C)c12 [Example 41, 1-[3-(2-{5-[(3R,5R)-3-amino-5-fluoropiperidine-1-carbonyl]-7-methoxy-1-methyl-1H-1,3-benzodiazol-2-yl}-1-(cyclopropylmethyl)-1H-indol-7-yl)azetidin-1-yl]ethan-1-one] | 53 |

Reference: patent US20220402950A1, “SUBSTITUTED BENZIMIDAZOLES AS PAD4 INHIBITORS” (BRISTOL-MYERS SQUIBB COMPANY, priority 2018, published 2022)
